{"source": "patent US5808065A", "about": "“Pyridazinone derivatives and processes for preparing the same” (Tanabe Seiyaku Co., Ltd., priority 1995, dated 1998)", "key": {"[1]": {"assay": "Side Effect to Circulatory System (normal awakened rats, tail-cuff method)", "type": "in vivo", "settings": "30 mg/kg/10 ml orally, before and 2 hours after administration", "protocol": "One experimental group consisted of 4 rats. Each compound to be tested was suspended in purified water by using a small amount of Tween 80 (trade name, produced by Nacalai Tesque Co.), and a dose of 30 mg/kg/10 ml was administered orally to normal awakened rats. Systolic blood pressures and heart rates before administration and 2 hours after administration were examined. The systolic blood pressures and the heart rates were measured by the tail-cuff method (KN-210, trade name, produced by Natsume Seisakusho) under conditions of pretreatment at 40° C. for 15 minutes.\nAccording to the following equations, the respective changing rates were calculated. [formula]"}, "[2]": {"assay": "Antinephritic Action (protein excretion inhibition in nephritis induced with nephrotoxic serum (NTS))", "type": "in vivo, male WKY rats", "settings": "30 mg/kg/10 ml orally twice a day for 8 days; urine collected for 24 hours on the seventh day; 6 rats per group", "protocol": "Rabbits were immunized several times with an adjuvant and a renal glomerular basement membrane fraction obtained from WKY rats, and then whole blood was collected from the rabbits to obtain a nephrotoxic serum (NTS). This NTS was diluted by 50 times with physiological saline, and to male WKY rats of 8 weeks old, 2.5 ml of the diluted NTS per 1 kg of body weight was injected intravenously to induce nephritis. To a normal group, the same amount of physiological saline was administered intravenously. One experimental group consisted of 6 rats. Each compound to be tested was suspended in purified water by using a small amount of Tween 80 (trade name, produced by Nacalai Tesque Co.), and a dose of 30 mg/kg/10 ml was orally administered twice a day for continuous 8 days. To a normal group and a control group, the same amount of purified water was administered orally. On the seventh day, the rats were placed in a metabolic cage, and urine was collected for 24 hours. By measuring the concentrations of protein in urine by the sulfosalicylic acid method, the amounts of excreted protein (mg/day) were determined, and protein excretion-inhibiting rates were calculated by the following equation. [formula]"}, "[3]": {"tested_on": "mice", "assay": "Toxicity (death of mice observed for 3 days)", "type": "in vivo", "source_text": "The desired compound (I) of the present invention has low toxicity."}}}
{"smiles": "Nc1ncccc1C(=O)NCCCCc1ccc(-c2ccc(=O)[nH]n2)cc1", "note": "[Example 33]", "values": [{"measurement": "Heart rate-changing rate", "setting": "[1]", "value": "2 Δ%"}, {"measurement": "Systolic blood pressure-changing rate", "setting": "[1]", "value": "1 Δ%"}, {"measurement": "Inhibition rate (protein excretion-inhibiting rate)", "setting": "[2]", "value": 85.7, "unit": "%"}]}
{"smiles": "CC1CC(=O)NN=C1c1ccc(CCNC(=O)c2cccnc2)cc1", "note": "(stereo not drawn) [Known compound, 5-methyl-6-(4-[2-(pyridin-3-ylcarbonylamino)ethyl]phenyl)-4,5-dihydropyridazin-3 (2H)-one, reference compound]", "values": [{"measurement": "Heart rate-changing rate", "setting": "[1]", "value": "18 Δ%"}, {"measurement": "Systolic blood pressure-changing rate", "setting": "[1]", "value": "-7 Δ%"}]}
{"smiles": "O=C(NCCCc1ccc(-c2ccc(=O)[nH]n2)cc1)c1cccnc1", "note": "[Example 31]", "values": [{"measurement": "Heart rate-changing rate", "setting": "[1]", "value": "7 Δ%"}, {"measurement": "Systolic blood pressure-changing rate", "setting": "[1]", "value": "0 Δ%"}]}
{"smiles": "O=C(NCCCCc1ccc(-c2ccc(=O)[nH]n2)cc1)c1cccnc1", "note": "[Example 30, 6-[4-(4-(pyridin-3-ylcarbonylamino)butyl)phenyl]pyridazin-3(2H)-one]", "values": [{"measurement": "Heart rate-changing rate", "setting": "[1]", "value": "3 Δ%"}, {"measurement": "Systolic blood pressure-changing rate", "setting": "[1]", "value": "-2 Δ%"}, {"measurement": "Inhibition rate (protein excretion-inhibiting rate)", "setting": "[2]", "value": 82.5, "unit": "%"}]}
{"smiles": "O=C(NCCCOc1ccc(-c2ccc(=O)[nH]n2)cc1)c1cccnc1", "note": "[Example 36, 6-[4-(3-(pyridin-3-ylcarbonylamino)propoxy)phenyl]pyridazin-3(2H)-one]", "values": [{"measurement": "Heart rate-changing rate", "setting": "[1]", "value": "1 Δ%"}, {"measurement": "Systolic blood pressure-changing rate", "setting": "[1]", "value": "0 Δ%"}, {"measurement": "Inhibition rate (protein excretion-inhibiting rate)", "setting": "[2]", "value": 89.0, "unit": "%"}]}
{"smiles": "C=CS(=O)(=O)NCCCc1ccc(-c2ccc(=O)[nH]n2)cc1", "note": "[Example 52-(4), 6-[4-(3-vinylsulfonylaminopropyl)phenyl]-pyridazin-3(2H)-one]", "values": [{"measurement": "Inhibition rate (protein excretion-inhibiting rate)", "setting": "[2]", "value": 74.6, "unit": "%"}]}
{"smiles": "Cl.O=C(NCCCCc1ccc(-c2ccc(=O)[nH]n2)cc1)c1cccnc1", "note": "[Example 69, 6-[4-(4-(pyridin-3-ylcarbonylamino)butyl)phenyl]pyridazin-3(2H)-one hydrochloride]", "values": [{"measurement": "death", "setting": "[3]; mouse, in vivo, ip, 300 mg/kg", "value": "no case of death was observed"}, {"measurement": "death", "setting": "[3]; orally, 1,000 mg/kg, observed for 3 days", "value": "no case of death was observed"}, {"measurement": "Inhibition rate (protein excretion-inhibiting rate)", "setting": "[2]", "value": 82.2, "unit": "%"}]}
{"smiles": "Cc1ncccc1C(=O)NCCCCc1ccc(-c2ccc(=O)[nH]n2)cc1", "note": "[Example 32]", "values": [{"measurement": "Heart rate-changing rate", "setting": "[1]", "value": "5 Δ%"}, {"measurement": "Systolic blood pressure-changing rate", "setting": "[1]", "value": "-2 Δ%"}, {"measurement": "Inhibition rate (protein excretion-inhibiting rate)", "setting": "[2]", "value": 64.3, "unit": "%"}]}
{"smiles": "Nc1ncccc1C(=O)NCCCCc1ccc(-c2ccc(=O)[nH]n2)cc1", "note": "[Example 70]", "values": [{"measurement": "Inhibition rate (protein excretion-inhibiting rate)", "setting": "[2]", "value": 74.1, "unit": "%"}]}
